Source: patent publication US20250090875A9, “IMMUNOSTIMULATORY COMPOUNDS AND CONJUGATES” (Seagen Inc., priority 2021, published 2025)

Assays:
Renca tumors = test: Renca kidney carcinoma model in Balb/c mice; assay type: in vivo, mouse; conditions: ADC, q7dx3 from ~100 mm^3, FIG. 14
Protocol: The difference in anti-tumor activity of the S18a and S18b conjugates was also assessed in the Renca kidney model. In this model, mice bearing Renca tumors were treated q7dx3 when tumors reached ˜100 mm^3 as indicated, and followed for mean group tumor growth (FIG. 14, top) and survival (FIG. 14, bottom) over time.
This example covers cancer treatment with EphA2 targeted TLR agonists. […] Balb/c mice were implanted with Renca tumor cells and when cells reached 100 mm^3 they were treated Q7dx3 treatments with 2.4 mg/kg of the indicated IDC, either non targeting isotype or an EphA2 targeting mAb.

[1] = SEC analysis of ADC aggregation (high molecular weight species) in plasma; assay type: physicochemical; conditions: ADC incubated with human or mouse plasma, FIG. 9
Protocol: Method I: Size-exclusion chromatography (SEC) was performed with a Waters ACQUITY UPLC system and an Acquity UPLC Protein BEH SEC Column, (200 Å, 1.7 μm, 4.6×150 mm, PN: 186005225). The mobile phase used was 7.5% isopropanol in 92.5% aqueous (25 mM sodium phosphate, 350 mM NaCl, pH 6.8), v/v. Elution was performed isocratically at a flow rate of 0.4 mL/min at ambient temperature.
To determine if any of these differences in activity potentially resulted from increases in aggregation as a subsequent result of changes in charge, SEC analysis was performed. ADCs containing either S18a (methyl ester) or S18b (carboxylic acid) were incubated with both human or mouse plasma and assessed for the formation of high molecular weight species (HMW) over time.

hTLR8 = molecular target: T1, hTLR8 (Homo sapiens, UniProt Q9NR97); test: HEK Blue hTLR8 cell assay of free TLR7/8 agonists; assay type: cell-based; conditions: HEK Blue hTLR8 cells, free agonist
T1 construct: expressed in transfected cells; host or cells: HEK Blue hTLR8 cells
T1 sequence (Q9NR97 27-1041): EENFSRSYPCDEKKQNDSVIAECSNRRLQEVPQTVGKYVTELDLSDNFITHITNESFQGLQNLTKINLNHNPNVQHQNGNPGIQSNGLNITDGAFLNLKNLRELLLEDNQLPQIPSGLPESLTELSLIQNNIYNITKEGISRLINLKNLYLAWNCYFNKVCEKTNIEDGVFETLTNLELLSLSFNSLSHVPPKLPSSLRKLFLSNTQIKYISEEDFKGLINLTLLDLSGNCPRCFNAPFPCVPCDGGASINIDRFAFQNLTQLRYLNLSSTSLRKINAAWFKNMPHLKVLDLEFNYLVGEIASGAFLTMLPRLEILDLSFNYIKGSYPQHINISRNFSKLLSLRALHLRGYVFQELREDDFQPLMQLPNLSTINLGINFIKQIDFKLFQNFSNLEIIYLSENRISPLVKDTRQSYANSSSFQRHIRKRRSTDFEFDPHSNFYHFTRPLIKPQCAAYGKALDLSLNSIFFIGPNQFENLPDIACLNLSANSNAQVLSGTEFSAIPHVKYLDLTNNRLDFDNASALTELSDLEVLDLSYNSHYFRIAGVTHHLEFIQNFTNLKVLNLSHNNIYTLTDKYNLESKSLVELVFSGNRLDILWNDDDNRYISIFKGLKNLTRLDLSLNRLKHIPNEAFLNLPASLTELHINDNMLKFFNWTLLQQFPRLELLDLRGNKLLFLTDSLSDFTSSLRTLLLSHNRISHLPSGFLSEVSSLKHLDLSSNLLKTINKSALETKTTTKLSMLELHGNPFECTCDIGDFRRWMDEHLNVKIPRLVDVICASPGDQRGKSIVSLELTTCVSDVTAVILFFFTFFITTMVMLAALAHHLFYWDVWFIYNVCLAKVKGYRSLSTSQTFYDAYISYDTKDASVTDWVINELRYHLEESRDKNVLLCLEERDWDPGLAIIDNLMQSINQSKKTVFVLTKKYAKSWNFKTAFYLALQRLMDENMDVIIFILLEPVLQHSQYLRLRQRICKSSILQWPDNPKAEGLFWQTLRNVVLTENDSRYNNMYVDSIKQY
Protocol: (§1) This example covers toll-like receptor 7 (TLR7) and toll-like receptor 8 (TLR8) selectivity of imidazoquinoline agonists. Assessment of TLR7 and TLR8 selectivity for the free TLR7/8 agonists was performed using HEK Blue hTLR7 and hTLR8 cells over a large dose range of compounds. […] Activities were determined based on calculated EC50 (in μM) in each cell line, and are summarized in TABLE 4 below, with columns providing targets and rows providing compounds.

hTLR7 = molecular target: T2, hTLR7 (Homo sapiens, UniProt Q9NYK1); test: HEK Blue hTLR7 cell assay of free TLR7/8 agonists; assay type: cell-based; conditions: for EC50: HEK Blue hTLR7 cells, free agonist; for TLR7/TLR8: ratio of EC50 hTLR7 to EC50 hTLR8
T2 construct: expressed in transfected cells; host or cells: HEK Blue hTLR7 cells
T2 sequence (Q9NYK1 27-1049): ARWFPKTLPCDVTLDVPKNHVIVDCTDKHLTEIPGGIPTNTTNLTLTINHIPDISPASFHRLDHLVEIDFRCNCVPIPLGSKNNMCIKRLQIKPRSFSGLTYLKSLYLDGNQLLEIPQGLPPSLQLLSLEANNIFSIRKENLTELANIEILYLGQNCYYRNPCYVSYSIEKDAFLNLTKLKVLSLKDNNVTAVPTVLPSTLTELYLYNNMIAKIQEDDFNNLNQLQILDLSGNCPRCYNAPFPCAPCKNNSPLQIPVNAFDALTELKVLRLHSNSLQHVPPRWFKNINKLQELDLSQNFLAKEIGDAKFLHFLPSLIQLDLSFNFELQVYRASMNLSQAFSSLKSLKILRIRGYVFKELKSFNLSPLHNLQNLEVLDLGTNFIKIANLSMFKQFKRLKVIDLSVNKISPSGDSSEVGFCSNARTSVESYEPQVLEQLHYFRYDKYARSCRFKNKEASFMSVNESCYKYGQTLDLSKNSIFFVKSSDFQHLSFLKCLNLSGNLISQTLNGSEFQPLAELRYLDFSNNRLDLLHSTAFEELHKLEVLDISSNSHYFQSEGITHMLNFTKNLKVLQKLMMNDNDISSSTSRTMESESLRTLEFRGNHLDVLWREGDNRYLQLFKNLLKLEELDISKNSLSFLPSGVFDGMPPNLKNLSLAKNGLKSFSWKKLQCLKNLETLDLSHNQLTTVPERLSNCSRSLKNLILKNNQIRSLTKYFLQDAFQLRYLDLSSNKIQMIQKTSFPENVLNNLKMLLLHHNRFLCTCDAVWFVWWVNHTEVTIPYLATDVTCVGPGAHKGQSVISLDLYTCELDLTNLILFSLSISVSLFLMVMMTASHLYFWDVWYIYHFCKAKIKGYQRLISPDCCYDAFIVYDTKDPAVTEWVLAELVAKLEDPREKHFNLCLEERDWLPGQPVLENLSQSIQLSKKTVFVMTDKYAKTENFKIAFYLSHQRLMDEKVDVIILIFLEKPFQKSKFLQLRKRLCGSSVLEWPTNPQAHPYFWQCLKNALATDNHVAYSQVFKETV
Protocol: as §1

primary human PBMCs = test: Cytokine induction in primary human PBMCs by small molecule TLR7/8 agonists (Luminex); assay type: cell-based; conditions: free drug
Protocol: This example covers dose dependent human immune cell activation by small molecule TLR7/8 agonists. Primary human PBMCs were isolated from peripheral whole blood from human donors and were subjected to treatment with increasing concentrations of the agonists diluted in PBS. Cell culture supernatants were harvested 24 h after treatment and analyzed for induction of cytokines via multiplex ELISAs (Luminex).
Several small molecule TLR7/8 agonists were assessed for their ability to activate human immune cells in a dose dependent manner. Primary human PBMCs were isolated from peripheral whole blood from human donors and were subjected to treatment with increasing concentrations of the agonists diluted in PBS. 24 h after treatment cell culture supernatants were harvested and analyzed for induction of cytokines via multiplex ELISAs (Luminex).

Row | EC50 (hTLR8) [µM] | EC50 (hTLR7) [µM] | TLR7/TLR8 (hTLR7) | Compound | tumor growth and survival (Renca tumors) | aggregation (formation of high molecular weight species over time) [1] | IL12p40 and IL1β responses (primary human PBMCs; FIG. 5) | potency and activity of cytokine induction (IL6, TNFα, MCP1, IP10) (primary human PBMCs; ranking, FIG. 30)
1 | 10.3 | 0.44 | 0.04 | CCCCc1nc2c(N)nc3cc(C(=O)OC)ccc3c2n1Cc1ccc(CN(C)C)cc1 [S18a] | some tumor growth benefit though no real survival benefit | no significant difference in the amounts of aggregation | lower responses of both cytokines | other two most potent compounds
2 | 8.84 | 2.53 | 0.28 | CCCCc1nc2c(N)nc3cc(C(=O)OC)ccc3c2n1CCCCCN [S14a] | – | – | – | –
